The results in this text go back to US10548865B1, “Compositions of citrulline” (Hubei Grand Biotechnology Co. Ltd., priority 2019, dated 2020).

For this experiment, the system named is mice. In words: Loaded swimming test, exercise time to exhaustion. The conditions noted are these: intragastric, 1 hour prior to test. The class given is in vivo. Here is the method: Adult (8-10 weeks) male ICR mice were used in this study and purchased from Beijing Vital River Laboratory Animal Technology Co., Ltd. All the mice were provided with a normal diet and water ad libitum. All procedures were approved by institutional guidelines and the Animal Care and Use Committee (Huazhong University of Science and Technology, Wuhan, China) of the university's animal core facility. The mice were group-housed under a 12 h light-dark cycle (lights on at 8:00 a.m.), at consistent humidity (50±5%), and ambient temperature (22˜24° C.).
The animals were bred with three mice per cage in the laboratory, and were acclimatized for 1 week before the experiments. The mice were grouped randomly for each experiment. The mice in each group were given the corresponding dose amino acid and the control group was treated with the equal volume of normal saline (NS) through intragastric administration. Loaded swimming experiments were performed to assess the acute effect of the amino acids on endurance one hour after the treatment
The NS injection were purchased from Beijing Pharmaceutical Group Co., Ltd. The amino acid powders were dissolved in NS and then were intragastric administration to mice by lavage needle (Beijing Vital River Laboratory Animal Technology Co., Ltd.).
Acute effects on endurance performance were assessed by loaded swimming test one hour after the amino acid treatment. The swimming exercise was carried out in a tank (diameter 120 cm) filled with fresh water to 30-cm depth at 24±2° C. A tin wire (⅛ of body weight) was attached on the tail of the mouse. […] The length of time each mouse kept swimming before exhaustion (exercise time to exhaustion) was recorded. At the end of the session, the mice were removed from the water, dried with paper towels, and placed back in their home cages.
Sixty mice were randomly divided into four groups (n=15 per group). Each of the four group were treated with NS, citrulline (200 mg/kg body weight), GABA (150 mg/kg body weight), and citrulline/GABA mixture (200 mg/kg+150 mg/kg) respectively. The results were summarized below (Table 2 and FIG. 1).
The methods used here are the same as in Example 1, but GABA (150 mg/kg) was replaced by taurine (200 mg/kg). The results were summarized below (Table 3 and FIG. 2).
The methods used here are the same as in Example 1. Sixty mice were randomly divided into four groups (n=15 per group). Each of the four group were treated with NS, citrulline (75 mg/kg body weight), taurine (25 mg/kg body weight), and citrulline taurine mixture (75 mg/kg+25 mg/kg) respectively. The results were summarized below (Table 4 and FIG. 3).

The mark [1] stands for this setting: Example 1, citrulline 200 mg/kg, GABA 150 mg/kg, mixture 200 mg/kg+150 mg/kg, male ICR mice.
The mark [2] stands for this setting: Example 2, citrulline 200 mg/kg, taurine 200 mg/kg, mixture 200 mg/kg+200 mg/kg.
The mark [3] stands for this setting: Example 3, lower doses, citrulline 75 mg/kg, taurine 25 mg/kg, mixture 75 mg/kg+25 mg/kg.

Structures are written as SMILES.

With `NC(=O)NCCC[C@H](N)C(=O)O` [Citrulline, L-citrulline], the “Average Time (s), exercise time to exhaustion” value (shortened to “Average Time (s), exercise time”) reads like this: under setting [1], 245.4 s; (Example 1, citrulline 200 mg/kg, GABA 150 mg/kg, mixture 200 mg/kg+150 mg/kg, male ICR mice, listed as citrulline) “about 245.4 s”; under setting [2], 194.6 s; under setting [3], 207.7 s. In addition, the “Increase of exercise time to exhaustion vs control” value by setting is: under setting [2], 15.6%; (Example 2, citrulline 200 mg/kg, taurine 200 mg/kg, mixture 200 mg/kg+200 mg/kg, listed as citrulline) 15.6%; under setting [3], 23.4%; (Example 3, lower doses, citrulline 75 mg/kg, taurine 25 mg/kg, mixture 75 mg/kg+25 mg/kg, listed as citrulline) 23.4%.

Regarding `NCCCC(=O)O` [GABA, gamma-aminobutyric acid, reference compound], the “Average Time (s), exercise time” value under setting [1] stood at 216.8 s.

Take `NCCS(=O)(=O)O` [Taurine, taurine]: the “Average Time (s), exercise time” value runs as follows: under setting [2], 208 s; under setting [3], 181 s. Moreover, the “Increase of exercise time to exhaustion vs control” value was determined as 23.6% under setting [2]; 23.6% (Example 2, citrulline 200 mg/kg, taurine 200 mg/kg, mixture 200 mg/kg+200 mg/kg, listed as taurine); 7.5% under setting [3]; 7.5% (Example 3, lower doses, citrulline 75 mg/kg, taurine 25 mg/kg, mixture 75 mg/kg+25 mg/kg, listed as taurine).
